In US12594343B2, “Treatment of cancer” (INNATE PHARMA, priority 2020, dated 2026):

T1: wild-type human Nectin-4 protein (Homo sapiens, UniProt Q96NY8)
T1 construct: expressed in transfected cells
T1 sequence (Q96NY8 32-510): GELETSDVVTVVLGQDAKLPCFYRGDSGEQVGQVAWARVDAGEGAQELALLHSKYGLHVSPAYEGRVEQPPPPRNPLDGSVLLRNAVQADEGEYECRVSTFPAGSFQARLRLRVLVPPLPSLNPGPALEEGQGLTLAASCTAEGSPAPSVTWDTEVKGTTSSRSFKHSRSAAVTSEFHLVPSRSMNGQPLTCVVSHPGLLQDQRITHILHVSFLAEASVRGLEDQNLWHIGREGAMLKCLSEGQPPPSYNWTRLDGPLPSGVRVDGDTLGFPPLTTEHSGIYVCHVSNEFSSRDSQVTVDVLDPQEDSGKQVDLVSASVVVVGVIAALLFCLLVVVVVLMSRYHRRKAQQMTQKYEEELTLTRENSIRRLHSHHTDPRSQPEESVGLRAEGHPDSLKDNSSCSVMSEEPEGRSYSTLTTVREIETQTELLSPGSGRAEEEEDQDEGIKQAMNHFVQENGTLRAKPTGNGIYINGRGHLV

T2: modified Nectin-4 lacking the Ig-like V domain (the C1C2 construct) (Homo sapiens, UniProt Q96NY8)
T2 construct: having the Ig-like C2 type 1 and the Ig-like C2 type 2 domains and lacking the Ig-like V domain (the C1C2 construct); expressed in transfected cells
T2 sequence (Q96NY8 148-510): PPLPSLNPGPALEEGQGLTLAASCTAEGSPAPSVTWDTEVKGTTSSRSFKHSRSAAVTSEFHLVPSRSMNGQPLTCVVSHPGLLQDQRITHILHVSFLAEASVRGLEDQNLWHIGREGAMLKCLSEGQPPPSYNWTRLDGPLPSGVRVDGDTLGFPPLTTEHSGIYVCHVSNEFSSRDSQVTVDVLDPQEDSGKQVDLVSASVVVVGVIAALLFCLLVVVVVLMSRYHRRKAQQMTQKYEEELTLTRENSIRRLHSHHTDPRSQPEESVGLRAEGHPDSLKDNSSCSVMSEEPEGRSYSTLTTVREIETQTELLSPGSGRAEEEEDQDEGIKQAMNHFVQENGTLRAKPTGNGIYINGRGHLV

B1: N4 ADC2: Anti-Nectin-4 antibody conjugated to a second camptothecin (SN-38) containing linker (conjugate)
VH: QVQLKQSGPGLVQPSQSLSITCTVSGFSLTNYGVHWVRQSPGKGLEWLGVIWSGGSTDYNAAFISRLSISKDTSKSQVFFKMNSLQADDTAIYYCARELIHAMDNWGQGTSVTVSS
VL: DIQMTQSPASLSVSVGETVTITCRASENIYSNLAWYQQKQGNSPQLLVFAATNLADGVPSRFSGSGSGTQYSLKINSLQSEDFGTYYCQHFWGTPTFGGGTKLEIK
B2: N41: anti-Nectin-4 antibody, VH and VL of SEQ ID NOS: 9 and 10 as human IgG1 isotype (antibody, listed as Mus musculus, V domains shown)
VH: B1 VH
VL: B1 VL
modifications: human IgG1 constant regions

Tests used:
[1] = test system: advanced or metastatic urothelial tract tumors; details: cited from earlier work
[2] = test system: pancreatic cancer; details: 349 patients; cited from earlier work
[3] = test system: UC; details: cited from earlier work
[4] = test system: SUM190 cells; assay: Fab-ZAP internalization assay (cell viability, CTG); format: cell-based, human; details: SUM190 (lower Nectin-4)
Description: (§1) The ability of the anti-nectin-4 antibodies to induce nectin-4 internalization was assessed on SUM190 cell lines expressing lower levels of nectin-4 and in SUM185 cells expressing higher levels of Nectin-4. […] Internalization was indirectly determined by using the Fab-ZAP human Internalization Kit (Advanced Targeting Systems) to allow the anti-Nectin-4 antibodies to target and eliminate Nectin-4 expressing cells, with measurement of cell viability using the CTG substrate (CellTiter-Glo® Luminescent Cell Viability Assay (Promega). Fab-ZAP is a chemical conjugate of goat anti-human monovalent antibody and the ribosome-inactivating protein, saporin. The antibodies used are affinity-purified polyclonal antibodies against both the heavy and light chain of human IgG. This secondary conjugate is used to evaluate the potential of a primary antibody to internalize.
(§2) Briefly, a concentration range of the antibodies or the control items was incubated on top of the SUM190 or SUM185 cells. After the incubation, the non-bound antibodies were washed away and Fab-ZAP was added on top of the cells. The newly formed complexes (anti-nectin-4 antibody+Fab-ZAP) internalized into the cells where the Saporin was released and stopped the protein synthesis leading to cell death. The internalization capability of the antibody was indirectly determined by the cells viability: the more efficient was the cell killing; the better was the internalization capability of the antibody.

[5] = test system: SUM185 cells; assay: as above; format: cell-based, human; details: SUM185 (higher Nectin-4)
Description: as §1, §2

[6] = target: T1, wild-type human Nectin-4 protein; assay: Flow cytometry binding to CHO cells expressing wild-type Nectin-4
Description: (§3) The characterization of the binding of the antibodies on Nectin-4 domains was performed by flow cytometry using cells made to express the wild-type human Nectin-4 protein and cells made to express a modified Nectin-4 having the Ig-like C2 type 1 and the Ig-like C2 type 2 domains and lacking the Ig-like V domain (the C1C2 construct). The latter protein additionally bears a V5 tag for flow cytometry cell sorting, and cells were used as Nectin4-C1C2-V5 sorted cells.
(§4) Wild-type Nectin-4 (the CI.3C8 cell line), a C2 construct (containing the Ig-like C2 type 2 domain and lacking both the V and the C1 domains) and the C1C2 construct allow the determination of whether test antibodies bind to the V or different C domains. Briefly, nucleic acid sequences encoding different human Nectin-4 domains were amplified by PCR. The PCR products were inserted into an expression vector at appropriate restriction sites. A leader peptide, and for C1C2 and C2 an N-terminal V5 tag having the amino acid sequence […] (SEQ ID NO: 13), were added, and expression at the surface of cells was confirmed by flow cytometry. The amino acid sequences of the resulting different human Nectin-4 domain fragment-containing proteins are shown below (V5 tag underlined). The vectors were then transfected into the CHO cell line to obtain stable clones expressing the different Nectin-4 domain proteins at the cell surface.

[7] = target: T2, modified Nectin-4 lacking the Ig-like V domain (the C1C2 construct); format: binding; details: flow cytometry, CHO cells
Description: as §3, §4

[8] = test system: modified Nectin-4 lacking the Ig-like V domain (the C1C2 construct); format: binding, human; details: concluded from wild-type versus C1C2 binding
Description: as §3, §4

[9] = test system: SUM190 tumor cells; assay: ADC-induced tumor cell death, Cell Titer Glo viability at day 6; format: cell-based, human
Description: The resulting ADCs were tested for their ability to induce death of Nectin-4/Her2 expressing SUM190 and SUM185 tumor cells of Example 1. Briefly, cells were plated cells in 96 well plates (V=80 μl). N4 ADC1 and Her2 ADC1 or human IgG1-isotype control (IC)-linker-toxin or medium (conc. 5×) were tested in 1:2 serial dilution starting from (530 nM to 30 nM) and in a 1:5 serial dilution (7 nM to 7×10−2 nM) for the N4 ADC1 and isotype control. N4 ADC2 and isotype control were tested in 1:10 serial dilution starting from (530 nM to 5.3 10-2). The ADCs' ability to cause cell death was determined by assessing confluence using Incucyte S3-2 apparatus; viability at day 6 after treatment was determined using the Cell Titer Glo™ (CTG) assay with an Enspire2 apparatus. IC50 values for each ADC was determined using Luminescent Cell Viability at day 6 data with GraphPad Prism8. Experiments were repeated twice.
The anti-Nectin-4 camptothecin-analogue ADCs used were the N4 ADC1 as shown in Example 2. The anti-Her2 ADCs were also those used in Example 2 (Her2 ADC1). The ADC's ability to cause cell death was determined by assessing confluence and determining viability of SUM190 cells at day 6 as described in Example 2.

Molecule | ability to induce internalization [4] | ability to induce internalization [5] | binding to whole Nectin-4 protein [6] | binding to C1C2 construct lacking the V domain [7] | Nectin-4 domain bound [8] | further results
CC[C@@]1(O)C(=O)OCc2c1cc1n(c2=O)Cc2cc3c([N+](=O)[O-])cccc3nc2-1 [RFS2000] |  |  |  |  |  | activity in patients failing prior chemotherapy [1]: did not exert significant activity
CC[C@@]1(O)C(=O)OCc2c1cc1n(c2=O)Cc2c-1nc1cc(F)c(C)c3c1c2[C@@H](N)CC3 [exatecan] |  |  |  |  |  | efficacy of exatecan in addition to gemcitabine versus gemcitabine alone [2]: not superior in efficacy to gemcitabine alone
enfortumab vedotin |  |  |  |  |  | CR (complete response rate) ([3]; UC patients): 12%; ORR (objective response rate) ([3]; UC patients): 44%; discontinuation due to progressive disease as assessed by RECIST ([3]; UC patients): 48%; discontinuation due to progressive disease by clinical symptoms ([3]; UC patients): 5%; patients that discontinued experienced adverse events, notably neuropathy [3]: 18%
enfortumab: anti-Nectin-4 antibody, VH and VL of SEQ ID NOS: 3 and 4 as human IgG1 isotype | highly potent in the ability to induce of internalization | highly potent in the ability to induce of internalization | bound to the whole Nectin-4 protein | lost binding | within the V domain | 
B1 |  |  |  |  |  | potency in causing tumor cell death (in words) [9]: good potency
B2 | highly potent in the ability to induce of internalization | highly potent in the ability to induce of internalization | bound to the whole Nectin-4 protein | lost binding | within the V domain | 
